Data on nine compounds can be found in PubChem BioAssay (NCI).

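In this assay, cells in 96-well plates receive the compound at five concentrations for 48 hours. Endpoints are linearly interpolated between the surrounding concentrations. GI50: concentration for 50% inhibition of growth. TGI is the concentration that stops growth completely.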

What all share (assay): DTP human tumour cell line panel, 48 h
Experiment [1] concerns CAKI-1 renal.
Experiment [2] has as its system EKVX NSCLC.
The test system of experiment [3] is HCC-2998 colon.
Experiment [4] concerns HL-60(TB) leukemia.
Experiment [5] has as its system K-562 leukemia.
Experiment [6] concerns LOX IMVI melanoma.
For experiment [7], the system named is NCI-H522 lung.
Experiment [8] concerns SF-295 CNS.
The subject of experiment [9] is SK-MEL-5 melanoma.
The test system of experiment [10] is SK-OV-3 ovarian.

A word on the TGI: it is the concentration at which net growth stops. Low values mean greater sensitivity of the cells, high ones lower sensitivity of the cells. The GI50 is the concentration at which growth is held to half of that of the control. As for `O=C1C=C[C@@]23C[C@@H](Nc4c(O)c5c6c(c42)=NCCC=6C=N5)SC3=C1`, the TGI in experiment [1] was 32.1 µM; in experiment [2], 20.2 µM; in experiment [3], 13.6 µM; in experiment [4], 5.61 µM; in [5], > 21.9 µM; in experiment [6], 3.78 µM. Further, the TGI in experiment [7] is 3.13 µM; in experiment [8], 19.3 µM; in experiment [9], 3.38 µM; in experiment [10] it was 32.8 µM. Besides, the GI50 was 7.74 µM in [2]; 4390 nM in [3]; 2.66 µM in [5]; 1820 nM in [6]; 6.68 µM in experiment [8]; 1930 nM in experiment [9].
In the case of `C=CC1=C[C@@H]2[C@@H]3O[C@]4(CC[C@H](O4)[C@@H](C)C[C@@H](O)C3=O)C[C@H](O)C3=NCC[C@@]32CC1`, the GI50 is < 3.33 nM in [1]; < 0.00333 µM in experiment [2]; < 3.33 nM in [3]; < 3.33 nM in experiment [4]; < 0.00333 µM in experiment [5]; < 3.33 nM in experiment [6]. Further, the GI50 is < 0.00333 µM in [7], < 0.00333 µM in experiment [8], < 3.33 nM in experiment [9] and < 0.00333 µM in experiment [10]. The TGI in experiment [1] was 0.00617 µM; in experiment [2], 0.00345 µM; in experiment [3], < 0.00333 µM; in experiment [4], < 0.00333 µM; in experiment [5] it was > 33.3 µM; in experiment [6] it was < 0.00333 µM. For the same compound, the TGI in experiment [7] is 0.00353 µM; in [8], < 0.00333 µM; in experiment [9], < 0.00333 µM; in experiment [10] it was 0.00795 µM.
On to `CC(/C(=N/NC(=O)C(N)=O)c1c(Cl)ccc(Cl)c1O)C1(O)C(=O)Nc2ccccc21` (centres undefined), for which the TGI is > 100 µM in experiment [1]; > 100 µM in experiment [2]; > 100 µM in [3]; 68 µM in [4]; > 100 µM in [5]; > 100 µM in experiment [6]. Further, the TGI in experiment [7] is 44.6 µM; in experiment [8] it was > 100 µM; in [9] it was > 100 µM; in experiment [10], > 100 µM.
For the compound `COCC1N=C(c2cc(OC)c(OC)c(OC)c2-c2cc3c(cc2C2OCCCO2)OCO3)O[C@H]1c1ccccc1` (some centres undefined), the TGI in [1], in experiment [2], in [3], in experiment [4], in [5] and in experiment [6] was > 100 µM in each case. The TGI in experiment [7], in experiment [8], in experiment [9] and in [10] was > 100 µM in each case.
Turning to `CS(=O)(=O)c1ccc(-c2cnc(N)c(C(=O)Nc3ccccc3)n2)cc1`, the GI50 was 4960 nM in experiment [1]; > 92.3 µM in experiment [2]; 3900 nM in [3]; 5620 nM in [4]; 5.34 µM in [5]; 4200 nM in [6]. Further, the GI50 in experiment [7] is > 54.8 µM; in experiment [8], 24.2 µM; in experiment [9], 28700 nM; in experiment [10], 6.85 µM. The TGI in [1] was > 55.8 µM; in experiment [2] it was > 100 µM; in [3], > 100 µM; in experiment [4], > 100 µM; in experiment [5], > 100 µM; in experiment [6] it was > 100 µM. Moreover, the TGI in [7], in experiment [8], in experiment [9] and in experiment [10] was > 100 µM each time.
Take `COC(=O)c1cc(-c2cc(OC)c(OC)c(OC)c2)[nH]c1N/N=C/c1c(Cl)cccc1Cl`: the GI50 in [1] was 1610 nM; in [2], 8.72 µM; in experiment [3], 2360 nM; in experiment [6] it was 2670 nM; in [7], 3.39 µM; in experiment [8], 1.01 µM. Also, the GI50 was 3170 nM in experiment [9] and 3.07 µM in experiment [10]. For the same compound, the TGI in [1] was 11.4 µM; in experiment [2], 52.9 µM; in [3], 18.4 µM; in [4], > 100 µM; in [5], > 100 µM; in [6], 17.3 µM. Besides, the TGI in experiment [7] is 18.6 µM; in experiment [8], 22.8 µM; in experiment [9], 17.6 µM; in [10] it was 13.3 µM.
Consider `Cc1nc2cnc3cc(F)c(-c4ccc(Oc5ncccn5)cc4Cl)cc3c2n1[C@H]1CCN(C(=O)CO)C[C@@H]1F`, for which the GI50 in [1] was 558 nM; in experiment [2] it was 3.23 µM; in experiment [3] it was 261 nM; in experiment [4], 106 nM; in [5], 4.6 µM; in [6], 417 nM. Moreover, the GI50 is 7.17 µM in experiment [7], 8.41 µM in experiment [8], 490 nM in experiment [9] and 3.93 µM in [10]. The TGI is 16.4 µM in experiment [1]; > 95.5 µM in experiment [2]; 15.3 µM in experiment [3]; 1.69 µM in experiment [4]; > 100 µM in experiment [5]; 11.5 µM in experiment [6]. Moreover, the TGI in [7] is 32.7 µM; in experiment [8], > 57.1 µM; in experiment [9], 14.7 µM; in experiment [10] it was > 100 µM.
Consider `Fc1cccc2cc3ccc4cccc5ccc(c12)c3c45`, for which the TGI in experiment [1], in [2], in [3], in experiment [4], in experiment [5] and in experiment [6] was > 100 µM in each case. For the same compound, the TGI in [7], in experiment [8], in experiment [9] and in experiment [10] was > 100 µM throughout.
Turning to `NC1=C(Br)C(=O)c2ncccc2C1=O`, the TGI in experiment [1] was 2.84 µM; in [2], 3.02 µM; in [3], 2.61 µM; in experiment [4], 2.81 µM; in [5], 1.01 µM; in experiment [6], 0.655 µM. Besides, the TGI in experiment [7] worked out at 0.766 µM; in experiment [8], 1.41 µM; in experiment [9], 1.46 µM; in experiment [10], 3.24 µM.
